The text below walks through data of US9751842B2, “Phthalazine derivatives” (Merck Patent GmbH, priority 2013, dated 2017).

Test [1] concerns the target T1, GST-tagged Tankyrase-1 (1023-1327 aa) (Homo sapiens, UniProt O95271).
T1 construct: GST-tagged Tankyrase-1 (1023-1327 aa)
In words: Tankyrase 1 autoparsylation HTRF enzyme assay. Type of test: biochemical. To be noted: HTRF autoparsylation, 90 min at 30° C; read-out: IC50 TNKS1 enzyme assay. The procedure: (§1) Biochemical Activity Testing of Tankyrase 1 and 2: Autoparsylation Assay
(§2) The autoparsylation assay is run in two steps: the enzymatic reaction in which GST-tagged Tankyrase-1, resp Tankyrase-2 transferred biotinylated ADP-ribose to itself from biotinylated NAD as co-substrate and the detection reaction where a time resolved FRET between cryptate labelled anti-GST bound to the GST tag of the enzyme and Xlent® labelled-streptavidin bound the biotin-parsylation residue is analysed. The autoparsylation activity was detectable directly via the increase in HTRF signal.
(§3) The autoparsylation assay is performed as 384-well HTRF® (Cisbio, Codolet, France) assay format in Greiner low volume nb 384-well microtiter plates and is used for high throughput screen. 250 nM GST-tagged Tankyrase-1 (1023-1327 aa), respectively about 250 nM GST-tagged Tankyrase-2 (873-1166 aa) and 5 μM bio-NAD (Biolog, Life science Inst., Bremen, Germany) as co-substrate are incubated in a total volume of 5 μl (50 mM HEPES, 4 mM Mg-chloride, 0.05% Pluronic F-68, 1.4 mM DTT, 0.5% DMSO, pH 7.7) in the absence or presence of the test compound (10 dilution concentrations) for 90 min at 30° C. The reaction is stopped by the addition of 1 μl 50 mM EDTA solution. 2 μl of the detection solution (1.6 μM SA-Xlent® (Cisbio, Codolet, France), 7.4 nM Anti-GST-K® (Eu-labelled anti-GST, Cisbio, Codolet, France) in 50 mM HEPES, 800 mM KF, 0.1° A. BSA, 20 mM EDTA, 0.1% CHAPS, pH 7.0) are added. After 1 h incubation at room temperature the HTRF is measured with an Envision multimode reader (Perkin Elmer LAS Germany GmbH) at excitation wavelength 340 nm (laser mode) and emission wavelengths 615 nm and 665 nm. The ratio of the emission signals is determined. The full value used is the inhibitor-free reaction. The pharmacological zero value used is XAV-939 (Tocris) in a final concentration of 5 μM. The inhibitory values (IC50) are determined using either the program Symyx Assay Explorer® or Condosseo® from GeneData.

Test [2] deals with T2, GST-tagged Tankyrase-2 (873-1166 aa) (Homo sapiens, UniProt Q9H2K2).
T2 construct: GST-tagged Tankyrase-2 (873-1166 aa)
In words: Tankyrase 2 autoparsylation HTRF enzyme assay. Type of test: biochemical. Particulars: HTRF autoparsylation, 90 min at 30° C; read-out: IC50 TNKS2 enzyme assay. How it is done: as §1, §2, §3

Test [3] concerns Tankyrase (Axin2 level in DLD1 cells). Description: Cellular inhibition of Tankyrase, Axin2 Luminex assay in DLD1 cells. Type of test: cell-based. To be noted: Homo sapiens, DLD-1, 24 hours, Axin2 level increase, read-out: IC50 Cell assay. How it is done:
Measurement of Cellular Inhibition of Tankyrase
Since Tankyrases have been described to modulate cellular level of Axin2 (Huang et al., 2009; Nature) the increase of Axin2 level is used as read-out for determination of cellular inhibition of Tankyrases in a Luminex based assay.
Cells of the colon carcinoma cell line DLD1 are plated in 96 well plates with 1.5×10^4 cells per well. Next day, cells are treated with a serial dilution of test compound in seven steps as triplicates with a final DMSO concentration of 0.3%. After 24 hours, cells are lysed in lysis buffer (20 mM Tris/HCl pH 8.0, 150 mM NaCl, 1% NP40, 10% Glycerol) and lysates are cleared by centrifugation through a 96 well filter plate (0.65 μm). Axin2 protein is isolated from cell lysates by incubation with a monoclonal anti-Axin2 antibody (R&D Systems #MAB6078) that is bound to fluorescent carboxybeads. Then, bound Axin2 is specifically detected with a polyclonal anti-Axin2 antibody (Cell Signaling #2151) and an appropriate PE-fluorescent secondary antibody. The amount of isolated Axin2 protein is determined in a Luminex^200 machine (Luminex Corporation) according to the manufacturer's instruction by counting 100 events per well. Inhibition of Tankyrase by test compounds results in higher levels of Axin2 which directly correlates with an increase of detectable fluorescence. As controls cells are treated with solvent alone (neutral control) and with a Tankyrase reference inhibitor IWR-2 (3E-06 M) which refers as control for maximum increase of Axin2. For analysis, the obtained data are normalized against the untreated solvent control and fitted for determination of the EC50 values using the Assay Explorer software (Accelrys).

Test [4] has as its target T3, GST-tagged Tnks-1 (1023-1327 aa) (Homo sapiens, UniProt O95271).
T3 construct: GST-tagged Tnks-1 (1023-1327 aa, prepared in-house); made in house
Description: TNKS1 activity ELISA (autoparsylation). Type of test: biochemical. Particulars: activity ELISA, 1 hour at 30° C; read-out: IC50 TNKS1 ELISA. How it is done: (§4) Description of the TNKS1 and TNKS2 ELISA Assay
(§5) Biochemical Activity Testing of TNKS 1 and 2: Activity ELISA (Autoparsylation Assay)
(§6) For analysis of autoparsylation activity of TNKS 1 and 2 an activity ELISA is performed: In the first step GST tagged TNKS is captured on a Glutathione coated plate. Then the activity assay with biotinylated NAD is performed in the absence/presence of the compounds. During the enzymatic reaction GST tagged TNKS transfers biotinylated ADP-ribose to itself from biotinylated NAD as co-substrate. For the detection streptavidin-HRP conjugate is added that binds to the biotinylated TNKS and is thereby captured to the plates. The amount of biotinylated resp. autoparsylated TNKS is detected with a luminescence substrate for HRP. The level of the luminescence signal correlates directly with the amount of autoparsylated TNKS and therefore with activity of TNKS.
(§7) The activity ELISA is performed in 384 well Glutathione coated microtiter plates (Express capture Glutathione coated plate, Biocat, Heidelberg, Germany). The plates are pre-equilibrated with PBS. Then the plates are incubated with 50 μl 20 ng/well GST-tagged Tnks-1 (1023-1327 aa, prepared in-house), respectively GST-tagged Tnks-2 (873-1166 aa, prepared in-house) in assay buffer (50 mM HEPES, 4 mM Mg-chloride, 0.05% Pluronic F-68, 2 mM DTT, pH 7.7) overnight at 4° C. The plates are washed 3 times with PBS-Tween-20. The wells are blocked by incubation at room temperature for 20 minutes with 50 μl blocking buffer (PBS, 0.05% Tween-20, 0.5% BSA). Afterwards the plates are washed 3 times with PBS-Tween-20. The enzymatic reaction is performed in 50 μl reaction solution (50 mM HEPES, 4 mM Mg-chloride, 0.05% Pluronic F-68, 1.4 mM DTT, 0.5% DMSO, pH 7.7) with 10 μM bio-NAD (Biolog, Life science Inst., Bremen, Germany) as co-substrate in the absence or presence of the test compound (10 dilution concentrations) for 1 hour at 30° C. The reaction is stopped by 3 times washing with PBS-Tween-20. For the detection 50 μl of 20 ng/μl Streptavidin, HRP conjugate (MoBiTec, Göttingen, Germany) in PBS/0.05% Tween-20/0.01% BSA are added and the plates are incubated for 30 minutes at room temperature. After three times washing with PBS-Tween-20 50 μl of SuperSignal ELISA Femto Maximum sensitivity substrate solution (ThermoFisherScientific (Pierce), Bonn, Germany) are added. Following a 1 minute incubation at room temperature luminescence signals are measured with an Envision multimode reader (Perkin Elmer LAS Germany GmbH) at 700 nm. The full value used is the inhibitor-free reaction. The pharmacological zero value used is XAV-939 (Tocris) in a final concentration of 5 μM. The inhibitory values (IC50) are determined using either the program Symyx Assay Explorer® or Condosseo® from GeneData.

For test [5], the target named is T4, GST-tagged Tnks-2 (873-1166 aa) (Homo sapiens, UniProt Q9H2K2).
T4 construct: GST-tagged Tnks-2 (873-1166 aa, prepared in-house); made in house
Description: TNKS2 activity ELISA (autoparsylation). Type of test: biochemical. Particulars: activity ELISA, 1 hour at 30° C; read-out: IC50 TNKS2 ELISA. How it is done:
as §4, §5, §6, §7

Test [6] deals with DLD-1-cancer cells. To be noted: Huang et al., 2009, Nature; cited from earlier work.
The test system of test [7] is β-catenin. Particulars: Huang et al., 2009, Nature; by increasing AXIN1 and AXIN2 levels; cited from earlier work.

T1 sequence (O95271 1023-1327): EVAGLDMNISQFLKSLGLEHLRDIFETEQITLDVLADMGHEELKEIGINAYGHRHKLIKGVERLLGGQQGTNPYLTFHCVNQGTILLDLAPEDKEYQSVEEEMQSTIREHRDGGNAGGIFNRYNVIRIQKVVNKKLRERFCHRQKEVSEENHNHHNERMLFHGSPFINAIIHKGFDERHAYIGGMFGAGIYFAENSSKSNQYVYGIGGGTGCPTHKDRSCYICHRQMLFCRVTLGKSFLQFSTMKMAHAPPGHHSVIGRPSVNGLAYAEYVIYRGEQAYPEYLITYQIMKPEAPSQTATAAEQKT
T3 sequence (O95271 1023-1327): as above
T4 sequence (Q9H2K2 873-1166): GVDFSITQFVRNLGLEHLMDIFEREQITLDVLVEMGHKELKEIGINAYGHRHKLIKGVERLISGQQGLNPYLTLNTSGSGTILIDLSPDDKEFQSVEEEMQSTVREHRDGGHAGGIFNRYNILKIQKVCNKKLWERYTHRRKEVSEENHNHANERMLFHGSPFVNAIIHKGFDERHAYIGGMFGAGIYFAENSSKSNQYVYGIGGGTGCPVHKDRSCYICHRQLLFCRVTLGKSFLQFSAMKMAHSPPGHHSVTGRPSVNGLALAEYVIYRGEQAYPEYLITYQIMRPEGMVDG
T2 sequence (Q9H2K2 873-1166): as above

With `O=C(CCc1ccccc1)Nc1nncc2ccccc12` [Compound A14, 3-phenyl-N-phthalazin-1-yl-propionamide], the IC50 in test [1] is under 300 nM; in test [2], 300 to 3000 nM; in test [3], 3 to 50 µM; in test [4], under 300 nM; in test [5], under 300 nM.
In the case of `O=C(CCc1cccc(Cl)c1Cl)Nc1nncc2ccccc12` [Compound A17, 3-(2,3-dichloro-phenyl)-N-phthalazin-1-yl-propionamide], the IC50 in test [1] was under 300 nM; in test [2] it was 300 to 3000 nM; in test [3], 3 to 50 µM; in test [4], under 300 nM; in test [5], under 300 nM.
Turning to `Oc1nc(-c2ccc(C(F)(F)F)cc2)nc2c1CSCC2` [XAV939], the “growth of DLD-1-cancer cells” value in test [6] was “inhibits growth”. The “Wnt-stimulated accumulation of β-catenin” value in test [7] was “blocked”.
